Several values for one entry are separate records, joined by “and”; a condition that tells them apart may be missing. Equal values may be shown once. Entries after “also recorded” stand apart in the source; their conditions may differ. Read-outs that look alike come from different tables or passages of the source. Blank lines part the entries; values can stand above or below the compound they belong to.
Key:
[1] = biological target: GluN1/GluN2C NMDA receptor (Rattus norvegicus, UniProt P35439+Q00961); format: cell-based; details: 10 μM L-glutamate plus 10 μM glycine, ± s.e.m., n ≥ 4
[2] = biological target: GluN1/GluN2D NMDA receptor (Rattus norvegicus, UniProt P35439+Q62645); format: cell-based; details: for IC50: IC50 GluN1/GluN2D
[3] = biological target: GluN1/GluN2B NMDA receptor (Rattus norvegicus, UniProt P35439+Q00960); format: cell-based; details: 10 μM L-glutamate plus 10 μM glycine, ± s.e.m., n ≥ 4
[4] = biological target: GluN1/GluN2A NMDA receptor (Rattus norvegicus, UniProt P35439+Q00959); format: cell-based; details: for IC50: IC50 GluN1/GluN2A
[5] = tested on: GluN1/GluN2A receptors with the NTD deleted on both the GluN1 and GluN2 subunits; test: Inhibition of NTD-deleted GluN1/GluN2A receptor responses in Xenopus oocytes; format: cell-based
[6] = tested on: GluN1/GluN2D receptors with the NTD deleted on both the GluN1 and GluN2 subunits; test: Inhibition of NTD-deleted GluN1/GluN2D receptor responses in Xenopus oocytes; format: cell-based
[7] = tested on: AMPA receptors; test: Preliminary studies of antagonist activity at AMPA receptors
[8] = tested on: GluN1/GluN2A-D NMDA receptors; format: cell-based
[9] = 10 μM L-glutamate plus 10 μM glycine, ± s.e.m., n ≥ 4
[10] = 10 μM L-glutamate plus 10 μM glycine, −60 mV, ± s.e.m., n ≥ 4

Sequence of GluN1/GluN2A NMDA receptor (Q00959 23-1464, other chains not shown): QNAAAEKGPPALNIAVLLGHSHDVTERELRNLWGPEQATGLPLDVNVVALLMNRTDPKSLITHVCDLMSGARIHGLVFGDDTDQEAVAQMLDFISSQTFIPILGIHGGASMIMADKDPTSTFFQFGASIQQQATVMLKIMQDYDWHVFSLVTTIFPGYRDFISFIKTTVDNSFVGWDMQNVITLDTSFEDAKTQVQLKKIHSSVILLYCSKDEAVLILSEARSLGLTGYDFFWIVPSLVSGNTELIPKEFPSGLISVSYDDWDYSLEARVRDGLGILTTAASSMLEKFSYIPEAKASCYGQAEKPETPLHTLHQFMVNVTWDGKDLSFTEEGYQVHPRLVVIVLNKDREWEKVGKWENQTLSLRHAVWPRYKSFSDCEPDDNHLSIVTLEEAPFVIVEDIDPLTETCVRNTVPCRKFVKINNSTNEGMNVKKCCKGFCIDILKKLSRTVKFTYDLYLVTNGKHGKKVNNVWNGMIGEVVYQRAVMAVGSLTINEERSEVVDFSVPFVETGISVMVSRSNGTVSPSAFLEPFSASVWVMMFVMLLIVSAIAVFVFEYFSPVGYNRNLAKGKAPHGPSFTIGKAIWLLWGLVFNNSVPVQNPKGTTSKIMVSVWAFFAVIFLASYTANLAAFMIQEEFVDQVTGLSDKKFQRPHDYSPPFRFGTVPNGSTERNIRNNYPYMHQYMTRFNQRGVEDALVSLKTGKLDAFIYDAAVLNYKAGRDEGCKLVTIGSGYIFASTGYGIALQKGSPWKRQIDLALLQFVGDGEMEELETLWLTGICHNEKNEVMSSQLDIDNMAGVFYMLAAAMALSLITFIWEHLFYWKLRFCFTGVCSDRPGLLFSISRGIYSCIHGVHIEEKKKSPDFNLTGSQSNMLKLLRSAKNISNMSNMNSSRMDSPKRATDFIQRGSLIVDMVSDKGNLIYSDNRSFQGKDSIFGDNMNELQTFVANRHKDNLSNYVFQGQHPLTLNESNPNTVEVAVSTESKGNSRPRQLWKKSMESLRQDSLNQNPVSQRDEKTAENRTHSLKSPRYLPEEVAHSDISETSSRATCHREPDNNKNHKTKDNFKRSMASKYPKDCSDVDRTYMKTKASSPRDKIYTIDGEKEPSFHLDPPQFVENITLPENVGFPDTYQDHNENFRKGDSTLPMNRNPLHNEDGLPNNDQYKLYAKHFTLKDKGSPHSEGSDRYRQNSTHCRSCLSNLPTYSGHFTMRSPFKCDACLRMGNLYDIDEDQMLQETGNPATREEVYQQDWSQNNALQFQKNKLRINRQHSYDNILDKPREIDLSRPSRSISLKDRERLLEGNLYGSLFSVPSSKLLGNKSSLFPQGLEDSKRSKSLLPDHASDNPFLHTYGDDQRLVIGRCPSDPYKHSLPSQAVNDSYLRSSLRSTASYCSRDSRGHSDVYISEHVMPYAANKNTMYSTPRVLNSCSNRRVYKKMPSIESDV
Sequence of GluN1/GluN2B NMDA receptor (Q00960 27-1482, other chains not shown): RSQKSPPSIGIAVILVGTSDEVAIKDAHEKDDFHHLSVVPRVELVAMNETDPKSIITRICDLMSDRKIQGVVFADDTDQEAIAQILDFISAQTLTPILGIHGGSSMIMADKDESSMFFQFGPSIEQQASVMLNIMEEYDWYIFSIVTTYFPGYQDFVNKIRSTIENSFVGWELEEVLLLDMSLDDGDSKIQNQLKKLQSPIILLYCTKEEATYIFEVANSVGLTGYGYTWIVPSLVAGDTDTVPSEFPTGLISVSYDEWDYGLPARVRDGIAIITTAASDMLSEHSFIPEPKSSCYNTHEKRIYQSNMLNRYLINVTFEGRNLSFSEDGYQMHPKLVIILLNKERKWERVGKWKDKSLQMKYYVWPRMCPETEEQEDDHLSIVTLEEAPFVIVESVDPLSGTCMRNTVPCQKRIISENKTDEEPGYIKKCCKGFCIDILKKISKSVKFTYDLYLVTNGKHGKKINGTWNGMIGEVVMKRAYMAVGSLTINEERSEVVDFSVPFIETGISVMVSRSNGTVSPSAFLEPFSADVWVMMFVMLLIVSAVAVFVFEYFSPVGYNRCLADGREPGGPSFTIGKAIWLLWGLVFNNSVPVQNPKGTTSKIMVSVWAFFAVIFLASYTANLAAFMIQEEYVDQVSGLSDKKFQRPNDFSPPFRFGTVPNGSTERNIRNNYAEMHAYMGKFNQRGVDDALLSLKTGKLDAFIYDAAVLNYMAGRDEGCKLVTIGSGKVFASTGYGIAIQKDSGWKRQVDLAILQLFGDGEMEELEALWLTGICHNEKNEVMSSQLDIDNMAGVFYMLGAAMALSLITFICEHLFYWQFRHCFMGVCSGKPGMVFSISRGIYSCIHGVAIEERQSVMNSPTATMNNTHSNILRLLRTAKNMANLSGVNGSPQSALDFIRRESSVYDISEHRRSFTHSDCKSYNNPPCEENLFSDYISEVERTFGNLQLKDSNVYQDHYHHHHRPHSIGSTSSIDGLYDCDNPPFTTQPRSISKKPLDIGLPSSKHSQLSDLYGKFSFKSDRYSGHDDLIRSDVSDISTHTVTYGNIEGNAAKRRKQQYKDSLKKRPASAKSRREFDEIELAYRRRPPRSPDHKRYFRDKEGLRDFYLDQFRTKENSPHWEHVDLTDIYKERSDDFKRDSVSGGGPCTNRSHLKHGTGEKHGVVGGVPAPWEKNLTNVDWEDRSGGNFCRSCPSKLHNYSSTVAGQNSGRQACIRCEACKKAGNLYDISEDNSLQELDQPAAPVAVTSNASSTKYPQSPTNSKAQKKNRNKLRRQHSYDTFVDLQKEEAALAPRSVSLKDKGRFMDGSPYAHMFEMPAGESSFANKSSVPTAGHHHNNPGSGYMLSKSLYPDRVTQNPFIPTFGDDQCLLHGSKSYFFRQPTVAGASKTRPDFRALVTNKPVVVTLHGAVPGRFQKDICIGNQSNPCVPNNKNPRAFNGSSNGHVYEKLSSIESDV
Sequence of GluN1/GluN2D NMDA receptor (Q62645 28-1323, other chains not shown): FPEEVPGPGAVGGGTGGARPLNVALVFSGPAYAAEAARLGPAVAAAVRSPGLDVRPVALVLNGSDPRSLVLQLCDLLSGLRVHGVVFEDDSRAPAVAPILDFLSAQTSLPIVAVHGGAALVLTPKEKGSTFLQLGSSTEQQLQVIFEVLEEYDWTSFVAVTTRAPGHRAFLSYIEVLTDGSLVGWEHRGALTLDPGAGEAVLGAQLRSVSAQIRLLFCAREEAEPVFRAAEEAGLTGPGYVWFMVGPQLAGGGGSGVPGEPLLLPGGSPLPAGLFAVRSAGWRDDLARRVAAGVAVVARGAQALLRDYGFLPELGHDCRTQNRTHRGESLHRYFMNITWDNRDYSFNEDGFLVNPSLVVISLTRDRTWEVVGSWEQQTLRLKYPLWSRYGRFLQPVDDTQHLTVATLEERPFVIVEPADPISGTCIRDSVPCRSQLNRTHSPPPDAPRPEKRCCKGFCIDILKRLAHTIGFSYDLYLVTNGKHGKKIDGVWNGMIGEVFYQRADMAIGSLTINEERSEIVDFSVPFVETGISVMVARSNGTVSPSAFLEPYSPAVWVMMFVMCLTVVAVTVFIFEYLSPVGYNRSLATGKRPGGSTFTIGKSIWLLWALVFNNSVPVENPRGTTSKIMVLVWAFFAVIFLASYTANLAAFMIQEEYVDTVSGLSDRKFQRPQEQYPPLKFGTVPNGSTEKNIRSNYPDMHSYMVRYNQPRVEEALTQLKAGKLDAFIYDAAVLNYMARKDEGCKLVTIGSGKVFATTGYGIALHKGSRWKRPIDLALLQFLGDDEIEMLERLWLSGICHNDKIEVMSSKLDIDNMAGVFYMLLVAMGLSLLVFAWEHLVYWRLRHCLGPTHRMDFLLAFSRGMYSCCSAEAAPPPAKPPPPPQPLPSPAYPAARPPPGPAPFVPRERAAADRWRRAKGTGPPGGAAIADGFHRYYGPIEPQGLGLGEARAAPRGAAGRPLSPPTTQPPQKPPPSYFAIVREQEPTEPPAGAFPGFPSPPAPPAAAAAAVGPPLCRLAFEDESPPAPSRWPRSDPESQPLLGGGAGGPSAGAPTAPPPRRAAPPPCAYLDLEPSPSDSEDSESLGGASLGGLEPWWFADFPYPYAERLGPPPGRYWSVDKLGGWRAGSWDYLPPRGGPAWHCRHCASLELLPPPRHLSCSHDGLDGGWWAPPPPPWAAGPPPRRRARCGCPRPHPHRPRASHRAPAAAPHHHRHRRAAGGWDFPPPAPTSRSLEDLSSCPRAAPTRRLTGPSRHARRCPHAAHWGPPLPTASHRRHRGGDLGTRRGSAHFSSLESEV

SMILES: O=C(O)c1cc2cc(Br)ccc2c(Br)c1O [UBP552, 1,6-Dibromo-2-hydroxy-3-naphthoic acid]
inhibition of receptor responses in the absence of the NTD ([5]; NTD deleted on GluN1 and GluN2A (Figure 4C)): still able to inhibit
effect of NTD deletion on inhibitory potency ([5]; compared with wild-type GluN1/GluN2A): increased the potency
inhibition of receptor responses in the absence of the NTD ([6]; NTD deleted on GluN1 and GluN2D (Figure 4C)): still able to inhibit
effect of NTD deletion on inhibitory potency ([6]; compared with wild-type GluN1/GluN2D): decreased the inhibitory potency
% Max. Inh. GluN1/GluN2D [2, 9]: 103.6 ± 2.2%
effect on oocytes expressing GluN1/GluN2D receptors without agonists ([2]; 100 μM compound in the absence of L-glutamate and glycine): no detectable effect
IC50 [2, 10]: 3.35 ± 0.18 µM
IC50 ([2]; [Gly] 10 μM, [L-Glu] 0.3 μM): 6.26 ± 0.58 µM
IC50 ([2]; [Gly] 10 μM, [L-Glu] 300 μM): 3.35 ± 0.82 µM
IC50 ([2]; [Gly] 300 μM, [L-Glu] 10 μM): 3.73 ± 0.75 µM
IC50 ([2]; [Gly] 300 μM, [L-Glu] 300 μM): 4.85 ± 0.27 µM
decrease of IC50 values ([2]; increasing L-glutamate from 0.3 μM to 10 μM or to 300 μM, p < 0.05): 46%
% Max. Inh. GluN1/GluN2B [3]: 108.3 ± 2.0%
antagonist activity at AMPA receptors [7]: has antagonist activity
% Max. Inh. GluN1/GluN2A [4, 9]: 105.6 ± 4.3%
IC50 [4, 10]: 6.29 ± 0.88 µM
IC50 ([4]; [Gly] 10 μM, [L-Glu] 2.0 μM): 5.05 ± 0.73 µM
IC50 ([4]; [Gly] 10 μM, [L-Glu] 300 μM): 8.58 ± 0.84 µM
IC50 ([4]; [Gly] 300 μM, [L-Glu] 10 μM): 10 ± 1.93 µM
IC50 ([4]; [Gly] 300 μM, [L-Glu] 300 μM): 15.5 ± 1.73 µM
ability to fully inhibit receptor responses ([8]; all GluN1/GluN2A-D receptors): able to fully inhibit all receptor responses

SMILES: O=C(O)c1cc2cc(-c3ccccc3)ccc2cc1O [UBP617, 2-hydroxy-6-phenyl-3-naphthoic acid]
% Max. Inh. GluN1/GluN2B [3]: 56.8 ± 5.2^c-ic-ic-ic-iI %
% Max. Inh. GluN1/GluN2A [4, 9]: 71.5 ± 6.4C^c-iHI %

SMILES: Oc1ccc2cc(Br)ccc2c1Br [UBP644, 1,6-dibromo-2-naphthol]
Inhibitory activity at NMDA receptors (Figure 2) ([8]; compound at 100 μM, GluN1/GluN2A-D, 10 μM L-glutamate plus 10 μM glycine): virtually inactive; also recorded: eliminated activity

Continued, values first:

% Max. Inh. GluN1/GluN2C [1]: 77.3 ± 5.0^EHI %
% Max. Inh. GluN1/GluN2D [2, 9]: 97.0 ± 2.2%
% Max. Inh. GluN1/GluN2B [3]: 82.1 ± 3.1%
% Max. Inh. GluN1/GluN2A [4, 9]: 78.8 ± 2.5^CHI %
SMILES: O=C(O)c1cc2cc(-c3ccccc3)ccc2c(I)c1O [UBP619, 2-hydroxy-1-iodo-6-phenyl-3-naphthoic acid]

% Max. Inh. GluN1/GluN2C [1]: 103.0 ± 7.1%
% Max. Inh. GluN1/GluN2D [2, 9]: 112.4 ± 21.3%
fold lower potency than UBP552 for GluN1/GluN2D ([2]; from IC50 values, Table 1): 33 fold
% Max. Inh. GluN1/GluN2B [3]: 84.4 ± 12.5%
% Max. Inh. GluN1/GluN2A [4, 9]: 104.3 ± 4.3%
fold lower potency than UBP552 at GluN1/GluN2A ([4]; from IC50 values, Table 1): 3 fold
SMILES: O=C(O)c1cc(Br)c2ccc(Br)cc2c1 [UBP628, 1,6-Dibromo-3-naphthoic acid]

% Max. Inh. GluN1/GluN2C [1]: 96.1 ± 2.3%
% Max. Inh. GluN1/GluN2D [2, 9]: 107.1 ± 4.3%
% Max. Inh. GluN1/GluN2B [3]: 90% and 90.6 ± 10.7%
% Max. Inh. GluN1/GluN2A [4, 9]: 90% and 90.5 ± 7.4%
SMILES: O=C(O)c1cc2cc(Br)ccc2c(I)c1O [UBP620, 6-bromo-2-hydroxy-1-iodo-3-naphthoic acid]
